In test [1] the test system is cerebral ischemia induced in rats (MCAO). Description: Animal cerebral infarct assay (Middle Cerebral Artery Occlusion, MCAO). The class given is in vivo, rat. To be noted: for reduce infarct size: rat; for total infarct volume relative to control animals / total ischemic damage relative to control animals: administered I.V. at the time of MCAO; for cerebral edema relative to control animals: administered at the time of MCAO; for cerebral edema relative to controls / total infarct volume relative to controls / total ischemic damage relative to controls: administered at the time of reperfusion. An excerpt: This assay is used to assess the efficacy of the test agents in protecting the brain against necrosis following cerebral ischemia induced in rats. Middle Cerebral Artery Occlusion (MCAO) is a widely used technique to induce transient focal cerebral ischemia in animal models. […] Furthermore, this model accurately represents the involvement of middle cerebral artery (MCA), the most affected vessel in human stroke, and also allows reperfusion as it happens in humans. MCAO by a two-hour occlusion is used to produce the maximum size of cortical infarction without increased mortality at twenty-four hours.
Male Wistar rats (Hadan, Ind.) weighing 300-350 g were allowed free access to water and commercial rodent diet under standard laboratory conditions. The room temperature was maintained at 20-23° C. and room illumination was on a 12/12-hour light/dark cycle. The rats were acclimatized to the laboratory environment 5 to 7 days prior to the study.
Before surgery, the animals were fasted overnight, but had free access to water. The-rats were anesthetized with 3.0% isoflurane (Aerrane, Front Dodge, Iowa) in […] and the animal's neck was shaved and sterilized before the operation. The animals were subjected to two hours MCAO using a modified intraluminal filament technique. A midline incision on the ventral part of the neck was made to expose external and internal carotid arteries. The right external and common carotid arteries were ligated by a suture (silk 5/0, Carlisle Laboratories, Farmers Branch, Tex.) and the right internal artery was temporarily ligated by a microvascular clip (Fine Science Tool Inc., Foster City, Calif.). A small incision was made in the common carotid artery and a nylon filament, its tip rounded by heating, prepared from a fishing line (Stren Fishing Lines, Wilmington, Del.) was inserted from the right common carotid artery. The filament was advanced into the internal carotid artery 18-20 mm from the point of bifurcation of internal and external arteries and a suture was tightly ligated around the filament. Two hours post occlusion, the animals were re-anesthetized to allow reperfusion for the remaining of the experiment by removal of the filament.
Anesthesia was maintained by inhalation of 3.0% isoflurane in […] throughout the entire procedure. The exterior site of the right femoral vein was shaved and sterilized prior to surgery. A 3 cm incision was made in the right groin region and the femoral vein was isolated. A small incision was made on the femoral vein temporarily ligated with a microvascular clip to introduce and advance a polyethylene (PE-50) catheter (Becton. Dickinson and Co., Sparks, Md.). The catheter was secured in place with suture (silk 5/0, Cailisle Laboratories, Farmers Branch, Tex.). The other end of the catheter was attached to a syringe filled with the heparinized saline for the bolus injection. Using a hemostat a pocket was made subcutaneously on the back of the animal so the PE catheter can be brought up to the exteriorization point at the nape of the neck for either a bolus injection or a continuous injection by an osmotic pump.
A standard rat gavage tube (Popper & Sons Inc, NY) was attached to a 3-cc hypodermic syringe. The animal was held by the shoulder in a vertical position. The feeding tube was placed into the mouth then advanced until it reached the stomach (the approximate insertion length of the tube was measured prior to the feeding). The content of the syringe was slowly delivered, and then the tube is withdrawn.
The animals are sacrificed by CO2 asphyxiation (dry ice) 24 hours post-MCAO. The skull is removed to expose the brain using a small bone cutter and starting from the base of the skull. The brain is removed quickly, rinsed in a chilled saline and placed on a rat brain tissue slicer (ASI instrument, Mich.). Seven 2-mm thick coronal slices are cut from each brain using razor blades. […]

For test [2] the following is noted: Evans resorption sterility test for vitamin E; cited from earlier work.
Where [3] appears, read: 6 mg/kg, administered IV at MCAO.
[4] abbreviates: 0.60 mg/kg, administered IV at MCAO.
Setting [5] is: administered at reperfusion (FIG. 2).
Where [6] appears, read: administered at the time of MCAO (FIG. 1).
Setting [7] is: at the same concentration, MCAO assay.

As for `Cc1c(C)c2c(c(C)c1O)CC[C@@](C)(CCC[C@H](C)CCC[C@H](C)CCCC(C)C)O2` (relative stereo) [alpha-tocopherol, [2R-2R*(4R*,8R*)]-3,4-dihydro-2,5,7,8-tetramethyl-2-(4,8,12-trimethyltridecyl)-2H-1-benzopyran-6-ol, reference compound], the reduce infarct size in test [1] (setting [3]) was 42%.

`Cc1cc(O)cc2c1O[C@](C)(CCC[C@H](C)CCC[C@H](C)CCCC(C)C)CC2` (relative stereo) [delta-tocopherol, [2R-[2R*(4R*,8R*)]]-3,4-dihydro-2,8-dimethyl-2-(4,8,12-trimethyltridecyl)-2H-1-benzo-pyran-6-ol]: the reduce infarct size in test [1] (setting [4]) is 52%. In addition, the “reduction of total infarct volume compared with alpha-tocopherol” value in test [1] (MCAO assay) is “more effective”. In test [2], the “activity relative to natural alpha-tocopherol” value is listed as “one hundredth”.

Take `Cc1c(O)cc2c(c1C)OC(C)(CCC(=O)O)CC2` (stereo not drawn) [gamma-CEHC, 2,7,8-trimethyl-2-(β-carboxy-ethyl)-6-hydroxy chroman]: in test [1], the “total infarct volume relative to control animals” value was “significantly reduced”, the “total ischemic damage relative to control animals” value is “significantly reduced”, the “cerebral edema relative to control animals” value was “reduced” and the “cerebral edema relative to controls” value is reported as “reduction”. In test [1], the “total infarct volume relative to controls” value is “reduction” and the “total ischemic damage relative to controls” value was “reduction”. In test [1] (setting [5]), the total infarct size entry is “able to reduce total infarct size”. Also, the total infarct size result in test [1] (setting [6]) was “able to reduce total infarct size”. Besides, the decreased neuronal damage in test [1] (drug ranges 0.1-5 mg/kg, IV at MCAO) is given as 50-65%.

In turn, `Cc1c(O)cc2c(c1C)OC(C)(CCCC(C)CCCC(C)CCCC(C)C)CC2` (centres unmarked) [gamma-tocopherol, 3,4-dihydro-2,7,8-trimethyl-2-(4,8,12-trimethyltridecyl)-2H-1-benzyopyran-6-ol] yielded a reduce infarct size in test [1] (setting [4]) of 81%. In test [1] (setting [3]), this molecule showed a reduce infarct size of 82%. Also, the reduce infarct size in test [1] (10.00 mg/kg by gavage, 3 hours pre-MCAO) is listed as 77%. In test [1], the “total infarct volume relative to control animals” value was “significantly reduced”, the “total ischemic damage relative to control animals” value is “significantly reduced”, the “cerebral edema relative to control animals” value is on record as “significantly reduced” and the “cerebral edema relative to controls” value was “reduction”. Also, in test [1], the “total infarct volume relative to controls” value was “reduction” and the “total ischemic damage relative to controls” value is “reduction”. Also, in test [1] (setting [5]), the total infarct size entry is “able to reduce total infarct size”. The total infarct size result in test [1] (setting [6]) is listed as “able to reduce total infarct size”. Moreover, in test [1] (setting [7]), the “reduction of tissue edema compared with alpha- or delta-tocopherol” value is “more effective” and the “reduction of total infarct volume compared with alpha- or delta-tocopherol” value is “more effective”.

These data come from patent US7034054B2, “Methods for the prevention and treatment of cerebral ischemia using non-alpha tocopherols” (Galileo Pharmaceuticals, Inc., priority 2000, dated 2006).
